Experimental data as given in PMC6458850, “CXXC5 mediates growth plate senescence and is a target for enhancement of longitudinal bone growth” (Life Science Alliance, 2019).

Assays:
tibial growth plate = assay: Estrogen-induced growth plate senescence in Cxxc5+/+ and Cxxc5−/− mice; type: in vivo, mouse; conditions: E2 cypionate 70 μg/kg i.m. once a week for 3 wk
Experimental: Figure 2. The effects of estrogen on CXXC5 expression and the mediation of growth plate senescence. (A) Immunoblotting (upper) and quantitative analyses (mean ± SEM, n = 3) (lower) in C28/I2 cells treated with 100 nM E2 (17β-estradiol) for 0, 1, 3, 6, 24, 48, or 72 h. (B) Immunocytochemical staining (left) and quantitative analyses of the fluorescent intensity (mean ± SEM, n = 3; t test, **P < 0.005 and ***P < 0.0005) (right) in C28/I2 cells treated with 100 nM E2 for 40 h. Scale bars, 100 μm. (C–E) Tibial organ cultures (E15.5) incubated with 100 nM E2 for 6 d. Representative images at 6 d (C, left) and quantitative analyses of the growth changes (mean ± SEM, n = 5; t test, ***P < 0.0005) (C, right). Scale bar, 1 mm. H&E staining (D, left) and quantification of each zone height (mean ± SEM, n = 5; t test, *P < 0.05 and **P < 0.005) (D, right) in the growth plate. Scale bar, 200 μm. IHC analyses of β-catenin and CXXC5 (E). Scale bars, 50 μm. (F) 3-wk-old Cxxc5^+/+ and Cxxc5^−/− mice were treated with E2 cypionate (70 μg/kg) by i.m. injection once a week for 3 wk (n = 3–4). Representative images of H&E staining and IHC analyses for BrdU, β-catenin, and CXXC5 in the growth plates of proximal tibiae are shown. The area within the dashed lines indicates the growth plate zone. Black and white scale bars, 50 μm. Yellow scale bar, 20 μm. RZ, resting zone; PZ, proliferative zone; HZ, hypertrophic zone. […]

tibiae (E15.5) = assay: Tibial organ culture (ex vivo); design: species or system mouse; conditions: 100 nM, 6 d
Experimental: Figure 2. The effects of estrogen on CXXC5 expression and the mediation of growth plate senescence. (A) Immunoblotting (upper) and quantitative analyses (mean ± SEM, n = 3) (lower) in C28/I2 cells treated with 100 nM E2 (17β-estradiol) for 0, 1, 3, 6, 24, 48, or 72 h. (B) Immunocytochemical staining (left) and quantitative analyses of the fluorescent intensity (mean ± SEM, n = 3; t test, **P < 0.005 and ***P < 0.0005) (right) in C28/I2 cells treated with 100 nM E2 for 40 h. Scale bars, 100 μm. (C–E) Tibial organ cultures (E15.5) incubated with 100 nM E2 for 6 d. Representative images at 6 d (C, left) and quantitative analyses of the growth changes (mean ± SEM, n = 5; t test, ***P < 0.0005) (C, right). Scale bar, 1 mm. H&E staining (D, left) and quantification of each zone height (mean ± SEM, n = 5; t test, *P < 0.05 and **P < 0.005) (D, right) in the growth plate. Scale bar, 200 μm. IHC analyses of β-catenin and CXXC5 (E). Scale bars, 50 μm. (F) 3-wk-old Cxxc5^+/+ and Cxxc5^−/− mice were treated with E2 cypionate (70 μg/kg) by i.m. injection once a week for 3 wk (n = 3–4). Representative images of H&E staining and IHC analyses for BrdU, β-catenin, and CXXC5 in the growth plates of proximal tibiae are shown. […] Tibial length was measured before treatment and after 6 d in culture. The samples were then prepared for paraffin embedding, sectioned, and analyzed by H&E and IHC staining.

Various cells = assay: Cytotoxicity test (WST-1 cell viability); type: cell-based; conditions: 0.01-100 μM, 24 hours
Experimental: intravenous; IP, intraperitoneal; Tmax, Time to maximum plasm concentration; Cmax, Maximum plasma concentration after intraperitoneal injection; AUC, Area under the curve; CL, clearance; Vss, Volume of distribution at steady state; T1/2, Elimination half-life; F, […]
Table R2. Cytotoxicity test for KY19382 […]
viability was measured using WST-1. The IC50 value was determined from the dose-response […]
This manuscript addresses the role of CXXC5, a negative regulator of Wnt/beta-Catenin signaling, on growth plate senescence and associated longitudinal bone growth.
Authors used a peptide PTD-DBMP, and a small molecule KY19382, which interferes with GSK-3b activity and CXXC5-DVL interaction. Such interference activates Wnt/beta-catenin signaling that delays growth plate senescence, resulting in longitudinal bone growth in mice; thereby proposing CXXC5 as a potential target to enhance longitudinal growth of children at the risk of height retardation. This is a well
(1 picture or pasted object on this page, not shown here)

CXXC5–DVL interaction = biological target: T1, CXXC5–DVL interaction (Homo sapiens, UniProt O14640); assay: In vitro CXXC5–DVL binding assay (FITC-tagged PTD-DBMP on DVL PDZ domain); conditions: dose–response curve, n = 3
T1 sequence (O14640 251-340 limits assumed): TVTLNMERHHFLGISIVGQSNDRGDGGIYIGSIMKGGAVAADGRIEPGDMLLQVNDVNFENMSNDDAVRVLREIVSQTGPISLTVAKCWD
Experimental: After the addition of 10 μM FITC-tagged PTD-DBMP to each well, each compound in the chemical library or control (DMSO) was treated to the well at a final concentration of 30 μM. The fluorescence intensity was measured using a Fluorstar Optima microplate reader (BGM Lab Technologies, Ortenberg, Germany). The binding values were calculated as a percent ratio of the fluorescent intensity normalized to the DMSO-treated control.

IC50 (CXXC5–DVL interaction)	SMILES	structural senescence of the tibial growth plate (tibial growth plate)	tibial length in ex vivo tibial culture (tibiae (E15.5))	cytotoxicity in variety of cell types (Various cells)
	C[C@]12CC[C@@H]3c4ccc(O)cc4CC[C@H]3[C@@H]1CC[C@@H]2O [E2, 17β-estradiol]	hardly observed	reduced tibial length	
19 nM	CON=C1C(=C2C(=O)Nc3cc(Cl)c(Cl)cc32)Nc2ccccc21 [KY19382, 5,6-dichloroindirubin-3′-methoxime]			does not induce cytotoxicity
